# Measurements reported in patent US20260001928A1 (CORTERIA PHARMACEUTICALS, priority 2022, published 2026).
# *1 amine or outer side, *2 acyl side, *3 side chain or, on linkers, in order; H or OH if unused. Where a SMILES comes first, the peptide text is derived from it. Side-chain parts run from the residue outwards. [ ]: non-standard residue; d: D form. The star is where a group is joined. C16 diacid = O=C(O)CCCCCCCCCCCCCCC(=O)*; γGlu = O=C(O)[C@H](CCC(=O)[*:2])N[*:1]; αMeL = CC(C)C[C@](C)(N)C(=O)O; Aib = CC(C)(N)C(=O)O
# Assays:
# CFR1R receptor = target: T1, CFR1R receptor (Homo sapiens, UniProt P34998); assay: Activity at anti-target CFR1R receptor, cAMP assay in CRF1R-overexpression CHO-K1 cells; type: cell-based; details: 100% = Sauvagine at 100 nM; for EC50: cAMP
# T1 construct: host or cells: CHO-K1 (clone 2)
# T1 sequence (P34998 24-415): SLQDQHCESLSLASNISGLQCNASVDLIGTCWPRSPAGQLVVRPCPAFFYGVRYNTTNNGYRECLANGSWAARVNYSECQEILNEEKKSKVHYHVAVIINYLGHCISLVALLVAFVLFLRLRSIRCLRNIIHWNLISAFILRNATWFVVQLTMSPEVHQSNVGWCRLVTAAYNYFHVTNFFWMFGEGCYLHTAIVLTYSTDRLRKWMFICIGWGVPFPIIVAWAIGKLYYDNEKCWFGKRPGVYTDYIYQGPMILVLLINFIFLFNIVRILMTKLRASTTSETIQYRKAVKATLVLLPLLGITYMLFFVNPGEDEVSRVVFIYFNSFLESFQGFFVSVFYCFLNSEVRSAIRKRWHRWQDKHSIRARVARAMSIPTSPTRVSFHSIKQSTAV
# In short: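 Clone 2 cells were cultured in F12 (Hams)/10% FBS/400 μg/ml G418 at 37° C./5% CO2, frozen in medium with 10% DMSO, and thawed vials used. The protocol followed the TeloHAEC procedure, with 4000 cells/well final and Sauvagine at 100 nM defining 100% activation.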
# human CRF2a receptor = target: T2, human CRF2a receptor (Homo sapiens, UniProt Q13324); assay: Activity at human CRF2a receptor, cAMP functional assay in TeloHEAC cells; type: cell-based; details: TeloHEAC cells stably expressing human CRF2a receptor, relative to urocortin 2 (100 nM = 100%)
# T2 construct: expressed in transfected cells; host or cells: TeloHEAC cells
# T2 sequence (Q13324 1-411): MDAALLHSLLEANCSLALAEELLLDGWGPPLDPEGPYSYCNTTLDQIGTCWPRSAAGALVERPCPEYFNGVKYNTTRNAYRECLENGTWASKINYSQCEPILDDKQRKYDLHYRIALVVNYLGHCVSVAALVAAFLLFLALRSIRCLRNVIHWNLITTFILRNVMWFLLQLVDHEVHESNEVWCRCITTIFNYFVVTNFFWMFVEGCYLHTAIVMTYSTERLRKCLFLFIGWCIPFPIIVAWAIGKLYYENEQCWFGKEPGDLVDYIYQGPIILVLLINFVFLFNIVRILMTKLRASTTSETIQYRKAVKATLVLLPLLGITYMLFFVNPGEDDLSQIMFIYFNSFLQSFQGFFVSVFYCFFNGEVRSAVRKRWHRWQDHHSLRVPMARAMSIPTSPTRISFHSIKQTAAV
# Description: Agonism of compounds for human corticotropin-releasing factor 2a (CRF2a receptor) was determined by a functional assay measuring cAMP modulation upon treatment of TeloHEAC cells stably expressing human CRF2a receptor. Compounds were dissolved at 0.5 mM in 100% DMSO and serially diluted (1:2) in 100% DMSO for 16 dilutions. 20 nL of each dilution was then transferred to 384-well assay plate using an acoustic droplet ejection instrument. 5 μL of compound buffer (1×HBSS; 20 mM HEPES,) were then added to each well. Prior to use, frozen cells were thawed quickly at 37° C. and washed (5 min at 900 rpm) with 20 mL cell buffer (1×HBSS; 20 mM HEPES). Cells were resuspended in cell buffer added with 2 mM IBMX and adjusted to a cell density of […]. 5 μL cells (final dell density: 10000 cells/well) were dispensed in the compound-containing 384-well assay plate and incubated for 30 minutes 37° C. The cAMP level in treated cells was determined using the Cisbio 62AM4PEC kit according to manufacturer's instruction. Finally, plates were incubated for 1 h at room temperature before measuring the fluorescence ratio between 665/620 nm. The percent activity value (E %) was calculated by setting 100 nM of urocortin 2 (UCN2) as 100%. The in vitro potency of the compounds was quantified by determining the concentrations that caused 50% activation of maximal response (EC50) relative to urocortin 2.
Emax (% I) (CFR1R receptor),EC50 (human CRF2a receptor),EC50 (CFR1R receptor),SMILES
47 % I,0.13 nM,–,CC[C@H](C)[C@H](NC(C)=O)C(=O)N[C@H](C(=O)N[C@@H](CC(C)C)C(=O)N[C@@H](CO)C(=O)N[C@@H](CC(C)C)C(=O)N[C@@H](CC(=O)O)C(=O)N[C@@H](C(=O)N1CCC[C@H]1C(=O)N[C@H](C(=O)N[C@@H](CCCCN)C(=O)N[C@@H](CC(C)C)C(=O)N[C@@H](CCCCNC(=O)CC[C@H](NC(=O)CCCCCCCCCCCCCCC(=O)O)C(=O)O)C(=O)N[C@@H](CCC(N)=O)C(=O)N[C@H](C(=O)N[C@@H](CC(C)C)C(=O)N[C@@H](CC(C)C)C(=O)N[C@@H](CCCCN)C(=O)N[C@@H](CCC(N)=O)C(=O)N[C@@H](CCC(=O)O)C(=O)N[C@@H](CCCNC(=N)N)C(=O)N[C@@H](CCC(N)=O)C(=O)N[C@@H](CCCCN)C(=O)N[C@@H](CCCCN)C(=O)N[C@@H](CCC(N)=O)C(=O)N[C@@H](CCCNC(=N)N)C(=O)N[C@@H](CCC(=O)O)C(=O)N[C@@H](CCC(N)=O)C(=O)N[C@@H](C)C(=O)N[C@@H](CCC(=O)O)C(=O)N[C@@H](CCCCN)C(=O)N[C@@H](CC(N)=O)C(=O)NC(C)(C)C(=O)N[C@@H](CCC(N)=O)C(=O)N[C@H](C(=O)N[C@@H](CC(C)C)C(=O)N[C@@H](CCC(=O)O)C(=O)N[C@@H](CCC(N)=O)C(=O)N[C@H](C(N)=O)C(C)C)[C@@H](C)CC)[C@@H](C)CC)[C@@H](C)CC)C(C)C)C(C)C [compound 16] (Ac-IVLSLD[dV]PIKLK([γGlu-C16 diacid])QILLKQERQKKQREQAEKN[Aib]QILEQV-NH2)
12 % I,0.21 nM,> 250 nM,CC[C@H](C)[C@H](NC(C)=O)C(=O)N[C@H](C(=O)N[C@@H](CC(C)C)C(=O)N[C@@H](CO)C(=O)N[C@@H](CC(C)C)C(=O)N[C@@H](CC(=O)O)C(=O)N[C@@H](C(=O)N1CCC[C@H]1C(=O)N[C@H](C(=O)N[C@@H](CCCCN)C(=O)N[C@@H](CC(C)C)C(=O)N[C@@H](CCCCNC(=O)CC[C@H](NC(=O)CCCCCCCCCCCCCCC(=O)O)C(=O)O)C(=O)N[C@@H](CCC(N)=O)C(=O)N[C@H](C(=O)N[C@@H](CC(C)C)C(=O)N[C@@H](CC(C)C)C(=O)N[C@@H](CCCCN)C(=O)N[C@@H](CCC(N)=O)C(=O)N[C@@H](CCC(=O)O)C(=O)N[C@@H](CCCNC(=N)N)C(=O)N[C@@H](CCC(N)=O)C(=O)N[C@@H](CCCCN)C(=O)N[C@@H](CCCCN)C(=O)N[C@@H](CCC(N)=O)C(=O)N[C@@H](CCCNC(=N)N)C(=O)N[C@@H](CCC(=O)O)C(=O)N[C@@H](CCC(N)=O)C(=O)N[C@@H](C)C(=O)N[C@@H](CCC(=O)O)C(=O)N[C@@H](CCCCN)C(=O)N[C@@H](CC(N)=O)C(=O)N[C@@H](CCC(=O)O)C(=O)N[C@@H](CCC(N)=O)C(=O)N[C@H](C(=O)N[C@@H](CC(C)C)C(=O)N[C@@H](CCC(=O)O)C(=O)N[C@@H](CCC(N)=O)C(=O)N[C@H](C(N)=O)C(C)C)[C@@H](C)CC)[C@@H](C)CC)[C@@H](C)CC)C(C)C)C(C)C [compound 17] (Ac-IVLSLD[dV]PIKLK([γGlu-C16 diacid])QILLKQERQKKQREQAEKNEQILEQV-NH2)
10 % I,3.55 nM,> 250 nM,CC[C@H](C)[C@H](NC(C)=O)C(=O)N[C@H](C(=O)N[C@@H](CC(C)C)C(=O)N[C@@H](CO)C(=O)N[C@@H](CC(C)C)C(=O)N[C@@H](CC(=O)O)C(=O)N[C@@H](C(=O)N1CCC[C@H]1C(=O)N[C@H](C(=O)N[C@@H](CCCCN)C(=O)N[C@@H](CC(C)C)C(=O)N[C@@H](CCCCNC(=O)CC[C@H](NC(=O)CCCCCCCCCCCCCCC(=O)O)C(=O)O)C(=O)N[C@@H](CCC(N)=O)C(=O)NC(C)(C)C(=O)N[C@@H](CC(C)C)C(=O)N[C@@H](CC(C)C)C(=O)N[C@@H](CCCCN)C(=O)N[C@@H](CCC(N)=O)C(=O)N[C@@H](CCC(=O)O)C(=O)N[C@@H](CCCNC(=N)N)C(=O)N[C@@H](CCC(N)=O)C(=O)N[C@@H](CCCCN)C(=O)N[C@@H](CCCCN)C(=O)N[C@@H](CCC(N)=O)C(=O)N[C@@H](CCCNC(=N)N)C(=O)N[C@@H](CCC(=O)O)C(=O)N[C@@H](CCC(N)=O)C(=O)N[C@@H](C)C(=O)N[C@@H](CCC(=O)O)C(=O)N[C@@H](CCCCN)C(=O)N[C@@H](CC(N)=O)C(=O)N[C@H](C(=O)N[C@@H](CCC(N)=O)C(=O)N[C@H](C(=O)N[C@@H](CC(C)C)C(=O)N[C@@H](CCC(=O)O)C(=O)N[C@@H](CCC(N)=O)C(=O)N[C@H](C(N)=O)C(C)C)[C@@H](C)CC)C(C)C)[C@@H](C)CC)C(C)C)C(C)C [compound 18] (Ac-IVLSLD[dV]PIKLK([γGlu-C16 diacid])Q[Aib]LLKQERQKKQREQAEKNVQILEQV-NH2)
3 % I,1.09 nM,> 250 nM,CC[C@H](C)[C@H](NC(C)=O)C(=O)N[C@H](C(=O)N[C@@H](CC(C)C)C(=O)N[C@@H](CO)C(=O)N[C@@H](CC(C)C)C(=O)N[C@@H](CC(=O)O)C(=O)N[C@H](C(=O)N1CCC[C@H]1C(=O)N[C@H](C(=O)N[C@@H](CCCCN)C(=O)N[C@@](C)(CC(C)C)C(=O)N[C@@H](CCCCNC(=O)CC[C@H](NC(=O)CCCCCCCCCCCCCCC(=O)O)C(=O)O)C(=O)N[C@@H](CCC(N)=O)C(=O)NC(C)(C)C(=O)N[C@@H](CC(C)C)C(=O)N[C@@H](CC(C)C)C(=O)N[C@@H](CCCCN)C(=O)N[C@@H](CCC(N)=O)C(=O)N[C@@H](CCC(=O)O)C(=O)N[C@@H](CCCNC(=N)N)C(=O)N[C@@H](CCC(N)=O)C(=O)N[C@@H](CCCCN)C(=O)N[C@@H](CCCCN)C(=O)N[C@@H](CCC(N)=O)C(=O)N[C@@H](CCCNC(=N)N)C(=O)N[C@@H](CCC(=O)O)C(=O)N[C@@H](CCC(N)=O)C(=O)N[C@@H](C)C(=O)N[C@@H](CCC(=O)O)C(=O)N[C@@H](CCCCN)C(=O)N[C@@H](CC(N)=O)C(=O)NC(C)(C)C(=O)N[C@@H](CCC(N)=O)C(=O)N[C@H](C(=O)N[C@@H](CC(C)C)C(=O)N[C@@H](CCC(=O)O)C(=O)N[C@@H](CCC(N)=O)C(=O)N[C@H](C(N)=O)C(C)C)[C@@H](C)CC)[C@@H](C)CC)C(C)C)C(C)C [compound 20] (Ac-IVLSLDVPIK[αMeL]K([γGlu-C16 diacid])Q[Aib]LLKQERQKKQREQAEKN[Aib]QILEQV-NH2)
5 % I,0.34 nM,> 250 nM,CC[C@H](C)[C@H](NC(C)=O)C(=O)N[C@H](C(=O)N[C@@H](CC(C)C)C(=O)N[C@@H](CO)C(=O)N[C@@H](CC(C)C)C(=O)N[C@@H](CC(=O)O)C(=O)N[C@@H](C(=O)N1CCC[C@H]1C(=O)N[C@H](C(=O)N[C@@H](CCCCN)C(=O)N[C@@H](CC(C)C)C(=O)N[C@@H](CCCCNC(=O)CC[C@H](NC(=O)CCCCCCCCCCCCCCC(=O)O)C(=O)O)C(=O)N[C@@H](CCCCN)C(=O)N[C@H](C(=O)N[C@@H](CC(C)C)C(=O)N[C@@H](CC(C)C)C(=O)N[C@@H](CCCCN)C(=O)N[C@@H](CCC(N)=O)C(=O)N[C@@H](CCC(=O)O)C(=O)N[C@@H](CCCNC(=N)N)C(=O)N[C@@H](CCC(N)=O)C(=O)N[C@@H](CCCCN)C(=O)N[C@@H](CCCCN)C(=O)N[C@@H](CCC(N)=O)C(=O)N[C@@H](CCCNC(=N)N)C(=O)N[C@@H](CCC(=O)O)C(=O)N[C@@H](CCC(N)=O)C(=O)N[C@@H](C)C(=O)N[C@@H](CCC(=O)O)C(=O)N[C@@H](CCCCN)C(=O)N[C@@H](CC(N)=O)C(=O)NC(C)(C)C(=O)N[C@@H](CCC(N)=O)C(=O)N[C@H](C(=O)N[C@@H](CC(C)C)C(=O)N[C@@H](CCC(=O)O)C(=O)N[C@@H](CCC(N)=O)C(=O)N[C@H](C(N)=O)C(C)C)[C@@H](C)CC)[C@@H](C)CC)[C@@H](C)CC)C(C)C)C(C)C [compound 21] (Ac-IVLSLD[dV]PIKLK([γGlu-C16 diacid])KILLKQERQKKQREQAEKN[Aib]QILEQV-NH2)
